Laboratory results as given in ChEMBL document CHEMBL3885881, “DrugMatrix”.

Species: Rattus norvegicus
Test: DrugMatrix - Regimen: Daily Repeat
Format: toxicity, organism-based, Sprague-Dawley
Design: regimen Daily Repeat, gender Male, age 6-8 weeks
Details: in vivo, sc, route subcutaneous, […]; for ABSOLUTE BASOPHIL / BASOPHIL / ABSOLUTE EOSINOPHIL / ABSOLUTE LYMPHOCYTE / ABSOLUTE MONOCYTE / ABSOLUTE SEGMENTED NEUTROPHIL / EOSINOPHIL / ERYTHROCYTE COUNT / HEMATOCRIT / HEMOGLOBIN / LEUKOCYTE COUNT / LYMPHOCYTE / MEAN CORPUSCULAR HEMOGLOBIN / MEAN CORPUSCULAR HEMOGLOBIN CONCENTRATION / MEAN CORPUSCULAR VOLUME / MONOCYTE / NEUTROPHIL / NUCLEATED RED BLOOD CELLS / PLATELET COUNT: tissue Blood; for CREATININE / ALANINE AMINOTRANSFERASE / ALBUMIN / ALKALINE PHOSPHATASE / ASPARTATE AMINOTRANSFERASE / BLOOD UREA NITROGEN / CARBON DIOXIDE / CHLORIDE / CHOLESTEROL / CREATINE PHOSPHOKINASE / GLUCOSE / LACTATE DEHYDROGENASE / LIPASE / PHOSPHORUS / POTASSIUM / SODIUM / TOTAL BILIRUBIN / TOTAL PROTEIN / URIC ACID: tissue Plasma
[1] = 0 mg/kg, 72 h, dose level Control, time 3 day
[2] = 0 mg/kg, 120 h, dose level Control, time 5 day
[3] = 0.1 mg/kg, 72 h, dose level Low, time 3 day
[4] = 0.1 mg/kg, 120 h, dose level Low, time 5 day
[5] = 2 mg/kg, 72 h, dose level M2, time 3 day
[6] = 2 mg/kg, 120 h, dose level M2, time 5 day

Compound: C[C@]12CC[C@@H]3c4ccc(OC(=O)c5ccccc5)cc4CC[C@H]3[C@@H]1CC[C@@H]2O [ESTRADIOL BENZOATE]
- ABSOLUTE BASOPHIL [1]: 0 CELLS/uL
- BASOPHIL [1]: 0%
- ABSOLUTE BASOPHIL [2]: 0 CELLS/uL
- BASOPHIL [2]: 0%
- CREATININE [2]: 0.17 mg/dL
- ABSOLUTE BASOPHIL [3]: 0 CELLS/uL
- ABSOLUTE EOSINOPHIL [3]: 27.33 CELLS/uL
- ABSOLUTE LYMPHOCYTE [3]: 9086.67 CELLS/uL
- ABSOLUTE MONOCYTE [3]: 78.67 CELLS/uL
- ABSOLUTE SEGMENTED NEUTROPHIL [3]: 1407.33 CELLS/uL
- BASOPHIL [3]: 0%
- EOSINOPHIL [3]: 0.33%
- ERYTHROCYTE COUNT [3]: 6.05 x10E6/uL
- HEMATOCRIT [3]: 38.9%
- HEMOGLOBIN [3]: 13.37 G/DL
- LEUKOCYTE COUNT [3]: 10.6 x10E3/uL
- LYMPHOCYTE [3]: 85.67%
- MEAN CORPUSCULAR HEMOGLOBIN [3]: 22.27 pg
- MEAN CORPUSCULAR HEMOGLOBIN CONCENTRATION [3]: 34.73 G/DL
- MEAN CORPUSCULAR VOLUME [3]: 64.23 fL
- MONOCYTE [3]: 0.67%
- NEUTROPHIL [3]: 13.33%
- NUCLEATED RED BLOOD CELLS [3]: 0 /100WBC
- PLATELET COUNT [3]: 1490.33 x10E3/uL
- ALANINE AMINOTRANSFERASE [3]: 35.67 u/L
- ALBUMIN [3]: 4.43 G/DL
- ALKALINE PHOSPHATASE [3]: 250.67 u/L
- ASPARTATE AMINOTRANSFERASE [3]: 76 u/L
- BLOOD UREA NITROGEN [3]: 10 mg/dL
- CARBON DIOXIDE [3]: 23.67 mmol/L
- CHLORIDE [3]: 100.33 MEQ/L
- CHOLESTEROL [3]: 76.67 mg/dL
- CREATINE PHOSPHOKINASE [3]: 460 u/L
- CREATININE [3]: 0.17 mg/dL
- GLUCOSE [3]: 191.67 mg/dL
- LACTATE DEHYDROGENASE [3]: 269.67 u/L
- LIPASE [3]: 9 u/L
- PHOSPHORUS [3]: 12.77 mg/dL
- POTASSIUM [3]: 6.18 MEQ/L
- SODIUM [3]: 140.73 MEQ/L
- TOTAL BILIRUBIN [3]: 0.1 mg/dL
- TOTAL PROTEIN [3]: 5.77 G/DL
- URIC ACID [3]: 3.8 mg/dL
- ABSOLUTE BASOPHIL [4]: 0 CELLS/uL
- ABSOLUTE EOSINOPHIL [4]: 79 CELLS/uL
- ABSOLUTE LYMPHOCYTE [4]: 6274.33 CELLS/uL
- ABSOLUTE MONOCYTE [4]: 295 CELLS/uL
- ABSOLUTE SEGMENTED NEUTROPHIL [4]: 551.67 CELLS/uL
- BASOPHIL [4]: 0%
- EOSINOPHIL [4]: 1%
- ERYTHROCYTE COUNT [4]: 5.91 x10E6/uL
- HEMATOCRIT [4]: 35.77%
- HEMOGLOBIN [4]: 13.47 G/DL
- LEUKOCYTE COUNT [4]: 7.2 x10E3/uL
- LYMPHOCYTE [4]: 86.67%
- MEAN CORPUSCULAR HEMOGLOBIN [4]: 22.8 pg
- MEAN CORPUSCULAR HEMOGLOBIN CONCENTRATION [4]: 37.67 G/DL
- MEAN CORPUSCULAR VOLUME [4]: 60.53 fL
- MONOCYTE [4]: 4%
- NEUTROPHIL [4]: 8.33%
- NUCLEATED RED BLOOD CELLS [4]: 0 /100WBC
- PLATELET COUNT [4]: 1231.67 x10E3/uL
- ALANINE AMINOTRANSFERASE [4]: 39.67 u/L
- ALBUMIN [4]: 5.37 G/DL
- ALKALINE PHOSPHATASE [4]: 187.33 u/L
- ASPARTATE AMINOTRANSFERASE [4]: 63 u/L
- BLOOD UREA NITROGEN [4]: 13.67 mg/dL
- CARBON DIOXIDE [4]: 29 mmol/L
- CHLORIDE [4]: 98.33 MEQ/L
- CHOLESTEROL [4]: 96.33 mg/dL
- CREATINE PHOSPHOKINASE [4]: 578 u/L
- CREATININE [4]: 0.18 mg/dL
- GLUCOSE [4]: 128.33 mg/dL
- LACTATE DEHYDROGENASE [4]: 137 u/L
- LIPASE [4]: 10.67 u/L
- PHOSPHORUS [4]: 11.5 mg/dL
- POTASSIUM [4]: 6.15 MEQ/L
- SODIUM [4]: 142.73 MEQ/L
- TOTAL BILIRUBIN [4]: 0.1 mg/dL
- TOTAL PROTEIN [4]: 7.67 G/DL
- URIC ACID [4]: 2.73 mg/dL
- ABSOLUTE BASOPHIL [5]: 0 CELLS/uL
- ABSOLUTE EOSINOPHIL [5]: 32 CELLS/uL
- ABSOLUTE LYMPHOCYTE [5]: 8090.33 CELLS/uL
- ABSOLUTE MONOCYTE [5]: 25.67 CELLS/uL
- ABSOLUTE SEGMENTED NEUTROPHIL [5]: 718.67 CELLS/uL
- BASOPHIL [5]: 0%
- EOSINOPHIL [5]: 0.33%
- ERYTHROCYTE COUNT [5]: 5.61 x10E6/uL
- HEMATOCRIT [5]: 37.6%
- HEMOGLOBIN [5]: 14.37 G/DL
- LEUKOCYTE COUNT [5]: 8.87 x10E3/uL
- LYMPHOCYTE [5]: 91.33%
- MEAN CORPUSCULAR HEMOGLOBIN [5]: 25.63 pg
- MEAN CORPUSCULAR HEMOGLOBIN CONCENTRATION [5]: 38.23 G/DL
- MEAN CORPUSCULAR VOLUME [5]: 67.03 fL
- MONOCYTE [5]: 0.33%
- NEUTROPHIL [5]: 8%
- NUCLEATED RED BLOOD CELLS [5]: 0.33 /100WBC
- PLATELET COUNT [5]: 1211.67 x10E3/uL
- ALANINE AMINOTRANSFERASE [5]: 46.67 u/L
- ALBUMIN [5]: 3.97 G/DL
- ALKALINE PHOSPHATASE [5]: 647.67 u/L
- ASPARTATE AMINOTRANSFERASE [5]: 67.67 u/L
- BLOOD UREA NITROGEN [5]: 9.67 mg/dL
- CARBON DIOXIDE [5]: 23.33 mmol/L
- CHLORIDE [5]: 96.33 MEQ/L
- CHOLESTEROL [5]: 36.33 mg/dL
- CREATINE PHOSPHOKINASE [5]: 231.67 u/L
- CREATININE [5]: 0.28 mg/dL
- GLUCOSE [5]: 138.67 mg/dL
- LACTATE DEHYDROGENASE [5]: 103 u/L
- LIPASE [5]: 9.33 u/L
- PHOSPHORUS [5]: 10.07 mg/dL
- POTASSIUM [5]: 5.43 MEQ/L
- SODIUM [5]: 138.43 MEQ/L
- TOTAL BILIRUBIN [5]: 0.1 mg/dL
- TOTAL PROTEIN [5]: 5.77 G/DL
- URIC ACID [5]: 0.63 mg/dL
- ABSOLUTE BASOPHIL [6]: 0 CELLS/uL
- ABSOLUTE EOSINOPHIL [6]: 34.67 CELLS/uL
- ABSOLUTE LYMPHOCYTE [6]: 10740.67 CELLS/uL
- ABSOLUTE MONOCYTE [6]: 0 CELLS/uL
- ABSOLUTE SEGMENTED NEUTROPHIL [6]: 658 CELLS/uL
- BASOPHIL [6]: 0%
- EOSINOPHIL [6]: 0.33%
- ERYTHROCYTE COUNT [6]: 6.23 x10E6/uL
- HEMATOCRIT [6]: 39.53%
- HEMOGLOBIN [6]: 15 G/DL
- LEUKOCYTE COUNT [6]: 11.43 x10E3/uL
- LYMPHOCYTE [6]: 93.67%
- MEAN CORPUSCULAR HEMOGLOBIN [6]: 24.17 pg
- MEAN CORPUSCULAR HEMOGLOBIN CONCENTRATION [6]: 38 G/DL
- MEAN CORPUSCULAR VOLUME [6]: 63.5 fL
- MONOCYTE [6]: 0%
- NEUTROPHIL [6]: 6%
- NUCLEATED RED BLOOD CELLS [6]: 0 /100WBC
- PLATELET COUNT [6]: 1334 x10E3/uL
- ALANINE AMINOTRANSFERASE [6]: 47.33 u/L
- ALBUMIN [6]: 3.9 G/DL
- ALKALINE PHOSPHATASE [6]: 436.33 u/L
- ASPARTATE AMINOTRANSFERASE [6]: 73.67 u/L
- BLOOD UREA NITROGEN [6]: 13.67 mg/dL
- CARBON DIOXIDE [6]: 24.33 mmol/L
- CHLORIDE [6]: 103.67 MEQ/L
- CHOLESTEROL [6]: 34 mg/dL
- CREATINE PHOSPHOKINASE [6]: 348.33 u/L
- CREATININE [6]: 0.2 mg/dL
- GLUCOSE [6]: 160.67 mg/dL
- LACTATE DEHYDROGENASE [6]: 186.67 u/L
- LIPASE [6]: 8.67 u/L
- PHOSPHORUS [6]: 11.73 mg/dL
- POTASSIUM [6]: 5.75 MEQ/L
